Series [1] in a line: Ratio of potentiation of AZT without serum to with serum. The class given is functional.
The target of the next series is Albumin (Homo sapiens, UniProt P02768). Put plainly: Protein binding affinity for human serum albumin was measured.
In series [2] the test system is Pseudomonas aeruginosa. Description: Minimum Potentiation Concentration of EPI required to achieve an 8-fold reduction in antibiotic MIC of levofloxacin against MexABOprMover-expressing strain of Pseudomonas aeruginosa. The class given is functional.
For series [3], the system named is Pseudomonas aeruginosa. Put plainly: Minimum Potentiation Concentration of EPI required to achieve an 8-fold reduction in antibiotic MIC of AZT against MexAB-OprM pump system in Pseudomonas aeruginosa without horse serum. The class given is functional.
For series [4], the system named is Pseudomonas aeruginosa. Put plainly: Minimum Potentiation Concentration of EPI required to achieve an 8-fold reduction in antibiotic MIC of AZT against MexAB-OprM pump system in Pseudomonas aeruginosa with 10% horse serum. It is filed as functional.
Series [5] deals with Mus musculus. Description: In vivo percent survival on day 7th after administration (15 mg/kg) in mice(Pseudomonas aeruginosa PAM1723). The class given is functional.
For series [6], the system named is Mus musculus. Description: In vivo number of survivors on day 4 after administration (30 mg/kg) in mice(Pseudomonas aeruginosa PAM1723). It is filed as functional.
Series [7] deals with Mus musculus. Description: In vivo number of survivors on day 1 after administration (30 mg/kg) in mice(Pseudomonas aeruginosa PAM1723). The class given is functional.
Series [8] concerns Mus musculus. Put plainly: In vivo number of survivors on day 0 after administration (30 mg/kg) in mice(Pseudomonas aeruginosa PAM1723). It is filed as functional.
Series [9] deals with Mus musculus. Description: In vivo number of survivors on day 1 after administration (7.5 mg/kg) in mice(Pseudomonas aeruginosa PAM1723). The class given is functional.
Series [10] concerns Mus musculus. Description: In vivo number of survivors on day 4 after administration (7.5 mg/kg) in mice(Pseudomonas aeruginosa PAM1723). It is filed as functional.
Series [11] deals with Mus musculus. Description: In vivo number of survivors on day 1 after administration (15 mg/kg) in mice(Pseudomonas aeruginosa PAM1723). The class given is functional.
The subject of series [12] is Mus musculus. Put plainly: In vivo number of survivors on day 0 after administration (7.5 mg/kg) in mice(Pseudomonas aeruginosa PAM1723). It is filed as functional.
In series [13] the test system is Mus musculus. Description: In vivo number of survivors on day 0 after administration (15 mg/kg) in mice(Pseudomonas aeruginosa PAM1723). The class given is functional.
The test system of series [14] is Mus musculus. Description: In vivo number of survivors on day 7 after administration (15 mg/kg) in mice(Pseudomonas aeruginosa PAM1723). The class given is functional.
Series [15] deals with Mus musculus. Description: In vivo percent survival on day 7th after administration (7.5 mg/kg) in mice(Pseudomonas aeruginosa PAM1723). It is filed as functional.
Series [16] concerns Mus musculus. Description: In vivo percent survival on day 7th after administration (30 mg/kg) in mice(Pseudomonas aeruginosa PAM1723). The class given is functional.
The subject of series [17] is Mus musculus. Put plainly: In vivo number of survivors on day 7 after administration (30 mg/kg) in mice(Pseudomonas aeruginosa PAM1723). The class given is functional.
The subject of series [18] is Mus musculus. Put plainly: In vivo number of survivors on day 7 after administration (7.5 mg/kg) in mice(Pseudomonas aeruginosa PAM1723). It is filed as functional.
Series [19] deals with Mus musculus. Description: In vivo number of survivors on day 4 after administration (15 mg/kg) in mice Pseudomonas aeruginosa PAM1723). The class given is functional.
Series [20] has as its system Mus musculus. Put plainly: In vivo number of survivors on day 4 after administration at the dose of 50 mg/kg along LVFX (7.5 mg/kg) in mice (Pseudomonas aeruginosa PAM1723). It is filed as functional.
Series [21] relates to Mus musculus. Put plainly: In vivo number of survivors on day 0 after administration at the dose of 50 mg/kg along LVFX (15 mg/kg) in mice (Pseudomonas aeruginosa PAM1723). It is filed as functional.
The test system of series [22] is Mus musculus. Description: In vivo number of survivors on day 0 after administration at the dose of 50 mg/kg along LVFX (7.5 mg/kg) in mice (Pseudomonas aeruginosa PAM1723). The class given is functional.
For series [23], the system named is Mus musculus. Put plainly: In vivo number of survivors on day 7 after administration at the dose of 50 mg/kg along LVFX (7.5 mg/kg) in mice (Pseudomonas aeruginosa PAM1723). The class given is functional.
Series [24] concerns Pseudomonas aeruginosa. Put plainly: In vivo percent survival on day 7th after administration at the dose of 50 mg/kg along LVFX (15 mg/kg) in Pseudomonas aeruginosa PAM1723. The class given is functional.
The subject of series [25] is Pseudomonas aeruginosa. Description: In vivo percent survival on day 7th after administration at the dose of 50 mg/kg along LVFX (7.5 mg/kg) in Pseudomonas aeruginosa PAM1723. The class given is functional.
In series [26] the test system is Mus musculus. Description: In vivo number of survivors on day 1after administration at the dose of 50 mg/kg along LVFX (7.5 mg/kg) in mice (Pseudomonas aeruginosa PAM1723). It is filed as functional.
The test system of series [27] is Mus musculus. Description: In vivo number of survivors on day 0 after administration at the dose of 50 mg/kg along LVFX (7.5 mg/kg) along with in mice (Pseudomonas aeruginosa PAM1723). The class given is functional.
Series [28] has as its system Mus musculus. Put plainly: In vivo number of survivors on day 1after administration at the dose of 50 mg/kg along LVFX (15 mg/kg) in mice (Pseudomonas aeruginosa PAM1723). The class given is functional.
The test system of series [29] is Mus musculus. Put plainly: In vivo number of survivors on day 4 after administration at the dose of 50 mg/kg along LVFX (15 mg/kg) in mice (Pseudomonas aeruginosa PAM1723). The class given is functional.
Series [30] has as its system Mus musculus. Put plainly: In vivo number of survivors on day 7 after administration at the dose of 50 mg/kg along LVFX (15 mg/kg) in mice (Pseudomonas aeruginosa PAM1723). It is filed as functional.
The test system of series [31] is Mus musculus. Description: In vivo number of survivors on day 7 after administration at the dose of 50 mg/kg along LVFX(7.5 mg/kg) in mice (Pseudomonas aeruginosa PAM1723). It is filed as functional.
The test system of series [32] is Pseudomonas aeruginosa. Put plainly: Minimum concentration ([…]) of inhibitor required to reduce (potentiate) the activity of antibacterial drug-LVFX for Pseudomonas aeruginosa PAM1723 by n-fold. It is filed as functional.

The structures appear in SMILES notation. Where only a bound is given, the exact number is not on record here.

In general, Kd refers to the concentration at which binding is half-saturated.

Chain of Albumin (P02768 whole entry): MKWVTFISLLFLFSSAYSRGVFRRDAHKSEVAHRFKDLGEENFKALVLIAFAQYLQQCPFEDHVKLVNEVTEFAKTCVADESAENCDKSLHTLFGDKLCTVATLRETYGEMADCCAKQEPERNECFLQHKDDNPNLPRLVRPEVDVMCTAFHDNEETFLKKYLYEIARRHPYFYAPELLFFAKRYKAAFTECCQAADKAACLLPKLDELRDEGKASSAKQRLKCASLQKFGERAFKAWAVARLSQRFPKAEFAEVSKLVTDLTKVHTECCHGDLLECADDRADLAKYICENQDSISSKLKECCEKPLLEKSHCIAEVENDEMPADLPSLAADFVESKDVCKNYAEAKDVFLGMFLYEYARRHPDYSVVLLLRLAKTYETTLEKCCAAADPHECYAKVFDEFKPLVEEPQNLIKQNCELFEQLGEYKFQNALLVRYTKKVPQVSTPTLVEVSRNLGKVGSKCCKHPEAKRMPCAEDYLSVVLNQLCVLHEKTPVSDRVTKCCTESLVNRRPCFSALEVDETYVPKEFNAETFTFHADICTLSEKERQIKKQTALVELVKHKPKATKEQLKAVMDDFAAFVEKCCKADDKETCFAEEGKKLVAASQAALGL

As to `CC(C)c1csc(/C=C/c2cccc(NC(=O)Cc3ccccc3C(=O)O)c2)n1`, the Ratio in [1] was over 16. Besides, the Binding on Albumin is on record as over 99.9%. The same compound yielded a Kd at Albumin of 0.28 µM. Moreover, the MPC8 in the series on Pseudomonas aeruginosa [2] was over 60 µg/mL; with Pseudomonas aeruginosa [3] it was “<=0.63 ug ml-1”; with Pseudomonas aeruginosa [4], 10 µg/mL.

`C[C@H]1COc2c(N3CCN(C)CC3)c(F)cc3c(=O)c(C(=O)O)cn1c23.C[C@H]1COc2c(N3CCN(C)CC3)c(F)cc3c(=O)c(C(=O)O)cn1c23.O` [LEVOFLOXACIN]: the figures for the Survival in the series on Mus musculus [5], in the series on Mus musculus [15] and with Mus musculus [16] were 10%, 0% and 70%, respectively. Moreover, the No. of survivors is 7 in the series on Mus musculus [6]; 9 in the series with Mus musculus [7]; 10 in the series on Mus musculus [8]; 0 in the series on Mus musculus [9]; 0 in the series with Mus musculus [10]; 1 in the series with Mus musculus [11]. For the same compound, the No. of survivors is 10 in the series with Mus musculus [12]; 10 in the series with Mus musculus [13]; 1 with Mus musculus [14]; 7 in the series with Mus musculus [17]; 0 in the series with Mus musculus [18]; 1 with Mus musculus [19].

Turning to `CC(C)c1csc(CCc2ccn3c(=O)c(C(=O)O)cnc3c2)n1`, the MPC8 in the series with Pseudomonas aeruginosa [3] and with Pseudomonas aeruginosa [4] was over 40 µg/mL each time.

For the compound `CC(C)c1csc(/C=C/c2ccn3c(=O)c(C(=O)O)cnc3c2)n1`, the Ratio in series [1] came out at 0.5. In addition, the MPC8 with Pseudomonas aeruginosa [2] is over 320 µg/mL; in the series with Pseudomonas aeruginosa [3], 80 µg/mL; in the series on Pseudomonas aeruginosa [4], 40 µg/mL.

As for `CCn1cc(-c2nnn[nH]2)c(=O)c2ccc(/C=C/c3nc(C(C)C)cs3)cc21`, in series [1], the Ratio worked out at 4. For the same compound, the MPC8 with Pseudomonas aeruginosa [2] came to 1.25 µg/mL; with Pseudomonas aeruginosa [3], 5 µg/mL; in the series with Pseudomonas aeruginosa [4] it was 20 µg/mL.

For `CC(C)c1csc(COc2cc3c(cc2F)c(=O)c(C(=O)O)cn3C2CC2)n1`, the Ratio in [1] came out at 1. On Albumin, this compound gave a Binding of 90.5%. The MPC8 was 320 µg/mL with Pseudomonas aeruginosa [2], 10 µg/mL in the series with Pseudomonas aeruginosa [3] and 10 µg/mL in the series on Pseudomonas aeruginosa [4].

As for `CC(C)c1csc(COc2ccn3c(=O)c(C(=O)O)cnc3c2)n1`, the Ratio in series [1] came to 2. The MPC8 in the series with Pseudomonas aeruginosa [2] amounted to 320 µg/mL; in the series on Pseudomonas aeruginosa [3] it was 40 µg/mL; in the series on Pseudomonas aeruginosa [4] it was 80 µg/mL.

As for `CC(C)c1csc(COc2ccn3c(=O)c(-c4nnn[nH]4)cnc3c2)n1`, the Ratio in [1] worked out at 1. Further, the No. of survivors with Mus musculus [20] is 4; in the series on Mus musculus [21], 10; with Mus musculus [22], 10; in the series on Mus musculus [23], 4; in the series with Mus musculus [26], 4. This compound returned a Binding at Albumin of 88.4%. In addition, on Albumin, the Kd turned out to be 66.4 µM. In addition, the results for the MPC8 in the series on Pseudomonas aeruginosa [2], in the series on Pseudomonas aeruginosa [3] and in the series on Pseudomonas aeruginosa [4] were 10 µg/mL, 5 µg/mL and 5 µg/mL, respectively. Besides, the results for the survival at 50 mg/kg with Pseudomonas aeruginosa [24] and with Pseudomonas aeruginosa [25] were 100% and 40%, respectively.

Take `CC(C)c1csc(/C=C/c2ccn3c(=O)c(-c4nnn[nH]4)cnc3c2)n1`: the Ratio in series [1] amounted to 1. The No. of survivors with Mus musculus [20] was found to be 1; in the series on Mus musculus [21] it was 10; with Mus musculus [27], 10; with Mus musculus [28], 10; in the series with Mus musculus [29], 7; in the series with Mus musculus [30], 7. For the same compound, the No. of survivors in the series with Mus musculus [31] and in the series with Mus musculus [26] was 1 in each case. Further, the Binding on Albumin came out at 90.8%. The compound further returned a Kd on Albumin of 22 µM. Also, the MPC8 in the series with Pseudomonas aeruginosa [2] stood at 1.25 µg/mL; in the series on Pseudomonas aeruginosa [3], 2.5 µg/mL; in the series with Pseudomonas aeruginosa [4], 2.5 µg/mL. The survival at 50 mg/kg is 70% in the series with Pseudomonas aeruginosa [24] and 10% in the series on Pseudomonas aeruginosa [25].

With `CCn1cc(C(=O)O)c(=O)c2ccc(/C=C/c3nc(C(C)C)cs3)cc21`, the Ratio in series [1] turned out to be 1. Moreover, the MPC8 with Pseudomonas aeruginosa [2] is over 160 µg/mL; with Pseudomonas aeruginosa [3], 10 µg/mL; in the series on Pseudomonas aeruginosa [4] it was 10 µg/mL.

As to `CC(C)c1csc(CCc2ccn3c(=O)c(-c4nnn[nH]4)cnc3c2)n1`, the Ratio in series [1] was found to be 1. Also, the Binding at Albumin is listed as 81.5%. In addition, binding at Albumin was characterised by a dissociation constant (Kd) of 327 µM. Also, the MPC8 with Pseudomonas aeruginosa [3] is 10 µg/mL; with Pseudomonas aeruginosa [4], 10 µg/mL; in the series with Pseudomonas aeruginosa [32], over 80 µg/mL.
